These results are taken from PubChem BioAssay (NCI).

Experiment in all cases: inhibition of tumour cell growth, NCI panel, 48 h
Test [1] deals with CAKI-1 renal.
Test [2] deals with SF-268 CNS.
The subject of test [3] is K-562 leukemia.
Test [4] relates to HT29 colon.
The test system of test [5] is NCI-H522 lung.
Test [6] has as its system U251 CNS.
Test [7] relates to HS 578T breast.
Test [8] concerns OVCAR-8 ovarian.
For test [9], the system named is MDA-MB-435.
For test [10], the system named is A498 renal.

Where “and” joins values, the source holds several entries; their conditions need not be identical. Identical values can stand only once.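 Five compound concentrations were applied to cells in 96-well plates for 48 hours; endpoints were derived by simple linear interpolation of the resulting dose-response curve. GI50 = concentration required for 50% inhibition of growth. TGI marks complete inhibition of growth.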 Where a SMILES comes first, the peptide text is derived from it.

Consider `Cc1cccc2c(N=Nc3ccc(S(N)(=O)=O)cc3)c(O)[nH]c12`, for which the GI50 in test [1], in [2], in [3], in test [4], in test [5] and in [6] was > 25 µM in each case. For the same molecule, the GI50 in test [7], in [8], in test [9] and in test [10] was > 25 µM throughout. The TGI in [1], in test [2], in test [3], in test [4], in test [5] and in test [6] was > 25 µM each time. Further, the TGI in test [7], in [8], in test [9] and in test [10] was > 25 µM each time.
Consider `Oc1ccc(CNCc2ccccc2)c2cccnc12`, for which the TGI was > 100 µM in [1]; > 65.6 µM in [2]; > 100 µM in test [3]; > 100 µM in [4]; > 100 µM in test [5]; 2.77 µM in test [6]. Further, the TGI in test [7], in test [8], in [9] and in test [10] was > 100 µM each time.
As to `O=C1/C(=C\C(Cl)=C/c2ccc([N+](=O)[O-])cc2)SC(=S)N1CCc1ccc(O)cc1`, the GI50 in test [1] is 0.548 µM; in test [2] it was 0.831 µM; in [3], 0.285 µM; in test [4], 0.429 µM; in test [5] it was 0.502 µM; in test [6], 0.261 µM. The GI50 in test [7] is 0.354 µM; in test [8], 0.414 µM; in test [9], 0.552 µM; in [10] it was 1.63 µM. Besides, the TGI in test [1] is 1.53 µM; in test [2], 2.77 µM; in test [3] it was > 100 µM; in test [4], 2.28 µM; in test [5] it was 2.67 µM; in test [6], 0.85 µM. The TGI turned out to be 2.04 µM in test [7], 4.2 µM in test [8], 1.95 µM in test [9] and 3.07 µM in test [10].
Turning to `Clc1cc(Cl)c(Cl)c(-c2nc(-c3cccnc3)cs2)c1`, the GI50 in test [1] was 7.43 µM; in test [2], 17.9 µM; in test [3], > 100 µM; in [4] it was 12.1 µM; in [5], 9.22 µM; in test [6] it was 37.8 µM. In addition, the GI50 in [7] was 18.6 µM; in test [8], 14.3 µM; in [9] it was 3.39 µM; in [10] it was 53.9 µM. Besides, the TGI in [1] was 78.7 µM; in [2], 69.8 µM; in test [3] it was > 100 µM; in test [4] it was > 100 µM; in test [5] it was 38.3 µM; in test [6], > 100 µM. For the same molecule, the TGI in test [7] is 55.5 µM; in test [8] it was 66.5 µM; in [9], 29.2 µM; in test [10], > 100 µM.
`C=C1C(=O)O[C@@H]2C(=O)[C@@H](C)[C@@H]3C=CC(=O)[C@@]3(C)[C@@H](OC(=O)/C(C)=C\C)[C@H]12`: the TGI in [1] was determined as 0.686 µM; in test [2], 6.22 µM; in test [3], 1.64 µM; in test [4], 1.36 µM; in test [5], 0.25 µM; in [6] it was 6.67 µM. Also, the TGI is > 58.8 µM in [7], 12 µM in test [8], 3.69 µM in test [9] and 3.44 µM in [10].
In the case of `Cc1c2c(nn1C(=O)c1nn(-c3ccc(Cl)cc3)cc1O)-c1ccccc1CC2`, the GI50 in [1] was 0.0971 µM; in test [2], 0.0469 µM; in test [3], 0.0273 µM; in test [4], 0.226 µM; in test [5], 0.0376 µM; in [6], 0.0292 µM. In addition, the GI50 in test [7] is 0.0201 µM; in test [8], 0.0523 µM; in [9], 0.0412 µM; in [10], 0.0181 µM. In addition, the TGI in test [1] is 6.85 µM; in test [2], > 100 µM; in test [3], > 100 µM; in [4], > 50.6 µM; in [5], 0.717 µM; in test [6], > 100 µM. The TGI in [7] was > 100 µM; in [8], > 100 µM; in [9], > 100 µM; in test [10] it was 0.0612 µM.
Take `CNNCc1ccc(C(=O)NC(C)C)cc1`: the GI50 in test [1], in [3] and in test [6] was > 500 µM throughout. Also, the TGI in test [1], in [2], in [3], in test [4], in test [5] and in [6] was > 500 µM each time. For the same molecule, the TGI in test [7], in [8], in test [9] and in test [10] was > 500 µM throughout.
Take `CC(=O)O[C@H]1C(=O)O[C@@H]2C[C@H]3C(C)=CC(=O)[C@@H](O)[C@]3(C)[C@H]3[C@@]4(O)OC[C@]32[C@@H]1[C@@H](C)[C@H]4O`: the GI50 in test [1] is 0.0752 µM; in test [2], 0.0173 µM; in [3], 0.0188 µM; in [4] it was 0.0374 µM; in test [5] it was < 0.0116 µM; in test [6], < 0.01 µM. Also, the GI50 is 0.0266 µM in test [8] and 0.187 µM in [10]. For the same molecule, the TGI in [1] is 2.36 µM and 2.13 µM; in [2], 0.0585 µM and 0.184 µM; in test [3], 0.125 µM and 0.128 µM; in test [4], 1.38 µM and 1.26 µM; in test [5] it was 0.226 µM and 0.0582 µM; in test [6] it was 0.049 µM and 0.0797 µM. The TGI in [7] is 0.19 µM; in test [8], 1.55 µM and 0.218 µM; in [9], 0.233 µM; in test [10], 1.19 µM and 0.385 µM.
As for `O=C(Nc1ccccc1)Nc1cccc(-n2cc(-c3ccncc3)c(-c3ccc(O)c(Cl)c3)n2)c1`, the GI50 in test [1] is 2.92 µM; in [2] it was 5.73 µM; in [3] it was 3.59 µM; in test [4] it was 2.27 µM; in test [5], 2.26 µM; in [6], 2.17 µM. Moreover, the GI50 in test [7] was 3.24 µM; in [8], 3.27 µM; in [9], 3.03 µM; in [10], 2.5 µM. In addition, the TGI is 14.3 µM in [1]; 68.8 µM in [2]; 13.4 µM in test [3]; 4.45 µM in test [4]; 6.73 µM in test [5]; 6.06 µM in test [6]. Also, the TGI in test [7] is > 100 µM; in test [8] it was 21 µM; in test [9], 17 µM; in [10], 8.37 µM.
As for `CC(C)CC(NC(=O)C(CC(C)C)NC(=O)C(Cc1cnc[nH]1)NC(=O)C(C)NC(=O)C(NC(=O)C(C)NC(=O)C(Cc1c[nH]c2ccccc12)NC(=O)C(CCC(=O)O)NC(=O)C(N)Cc1ccccc1)C(C)C)C(N)=O` (stereo not given) (H-FEWAVAHLL-NH2; configuration not given here), the GI50 in [1], in test [3], in test [4], in [6], in test [8] and in test [10] was > 100 µM each time. The TGI in test [1] is > 100 µM; in test [2], > 12.5 µM; in test [3], > 100 µM; in test [4] it was > 100 µM; in test [5], > 12.5 µM; in [6], > 100 µM. For the same molecule, the TGI in test [7] was > 12.5 µM; in test [8], > 100 µM; in test [9] it was > 12.5 µM; in test [10], > 100 µM.
In the case of `O=[N+]([O-])c1cc(CCl)ccc1CCl`, the TGI in test [1] turned out to be 2.76 µM; in [2] it was 4.21 µM; in [3], 7.49 µM; in test [4], 3.22 µM; in test [5], 3.98 µM; in test [6] it was 3.14 µM. The TGI in test [7] was 11.4 µM; in test [8], 7.17 µM; in test [9], 5.05 µM; in test [10] it was 16.1 µM.
Take `N#CC(=S)Nc1ccc(Cl)c(Cl)c1`: the TGI in [1] was 55.1 µM; in [2], > 94.5 µM; in [3], 46.9 µM; in test [4] it was 55.4 µM; in test [5], 24.2 µM; in test [6], > 85.1 µM. The TGI in [7] was > 100 µM; in test [8], > 87.1 µM; in [9], > 70.5 µM; in [10], 51.8 µM. Besides, the GI50 in test [5] is 3.73 µM; in test [7], 11.3 µM.
`COc1cc(C#N)cc(OC)c1OCCOCCOc1c(OC)cc(C#N)cc1OC`: the GI50 was > 100 µM in [1]; > 100 µM in test [2]; 11.7 µM in test [3]; > 100 µM in test [4]; 31.2 µM in test [5]; > 100 µM in [6]. In addition, the GI50 is > 100 µM in test [7], 51.3 µM in test [8], > 100 µM in test [9] and 35.4 µM in test [10]. Also, the TGI in test [1] is > 100 µM; in [2] it was > 100 µM; in test [3] it was 37.1 µM; in test [4], > 100 µM; in test [5] it was > 100 µM; in test [6], > 100 µM. In addition, the TGI in test [7], in [8], in test [9] and in test [10] was > 100 µM in each case.
For `O=c1cc(-c2ccc(Cl)cc2)[nH]c2ncccc12`, the TGI in [1] was > 100 µM; in [2] it was > 100 µM; in test [3] it was 76.1 µM; in test [4], > 100 µM; in test [5], > 100 µM; in test [6] it was > 100 µM. The TGI is > 100 µM in test [7], > 100 µM in [8], 22.4 µM in test [9] and > 100 µM in test [10]. The GI50 in [9] was 5.96 µM.
Consider `CCOC(=O)/C(=C/c1ccc([N+](=O)[O-])cc1)C(=O)c1ccccc1`, for which the GI50 was 2.56 µM in test [1]; 2.83 µM in [2]; 3.5 µM in test [3]; 2.05 µM in test [4]; 1.7 µM in test [5]; 2.13 µM in test [6]. In addition, the GI50 in test [7] was 3.44 µM; in [8] it was 3.73 µM; in test [9] it was 2.23 µM; in [10] it was 2.33 µM. Further, the TGI in test [1] came to 7.13 µM; in test [2] it was 10.7 µM; in test [3], 28.7 µM; in test [4], 3.83 µM; in test [5], 3.51 µM; in test [6], 4.48 µM. For the same molecule, the TGI came out at 12.8 µM in test [7], 12 µM in test [8], 5.37 µM in test [9] and 5.37 µM in [10].
In the case of `Cn1ncc2c(/N=C/c3cccs3)[nH]c(=S)nc21`, the GI50 in [1] was 33.4 µM; in [2] it was 26.2 µM; in test [3], 21.2 µM; in test [4], 52.3 µM; in [5] it was > 68.2 µM; in test [6] it was 43.1 µM. Moreover, the GI50 in [7] was 24.9 µM; in test [8], 57.5 µM; in test [9], 29.9 µM; in test [10], 0.689 µM. Moreover, the TGI in test [1] was > 100 µM; in test [2], > 94.6 µM; in test [3], > 100 µM; in test [4] it was > 100 µM; in test [5], > 100 µM; in test [6], > 100 µM. For the same molecule, the TGI is 77 µM in test [7], > 100 µM in [8], > 72.2 µM in test [9] and 27.5 µM in test [10].
For the molecule `O=C1N=C(c2ccccc2)OC1C(=O)c1ccccc1` (stereo not given), the TGI in test [1], in test [2], in test [3], in test [4], in test [5] and in test [6] was > 100 µM throughout. The TGI in test [7], in [8], in [9] and in test [10] was > 100 µM throughout.
